Measurements from ChEMBL document CHEMBL1147669, “Synthesis of biphenyltrienes as probes for beta-amyloid plaques” (J Med Chem, 2006).

Assays:
[1] = molecular target: T1, Amyloid-beta precursor protein (Homo sapiens, UniProt P05067); test: Displacement of [125I]2-(4'-dimethylaminophenyl)-6-iodoimidazo[1,2-a]pyridine from beta amyloid peptide in brain tissue at 50 uL; assay type: tissue-based
[2] = molecular target: T1, Amyloid-beta precursor protein; test: Displacement of [125I](E,E)-1-iodo-2,5-bis-(3-hydroxycarbonyl-4-methoxy)styrylbenzene from beta amyloid peptide in brain tissue at 50 uL; assay type: tissue-based

T1 sequence (P05067 whole entry): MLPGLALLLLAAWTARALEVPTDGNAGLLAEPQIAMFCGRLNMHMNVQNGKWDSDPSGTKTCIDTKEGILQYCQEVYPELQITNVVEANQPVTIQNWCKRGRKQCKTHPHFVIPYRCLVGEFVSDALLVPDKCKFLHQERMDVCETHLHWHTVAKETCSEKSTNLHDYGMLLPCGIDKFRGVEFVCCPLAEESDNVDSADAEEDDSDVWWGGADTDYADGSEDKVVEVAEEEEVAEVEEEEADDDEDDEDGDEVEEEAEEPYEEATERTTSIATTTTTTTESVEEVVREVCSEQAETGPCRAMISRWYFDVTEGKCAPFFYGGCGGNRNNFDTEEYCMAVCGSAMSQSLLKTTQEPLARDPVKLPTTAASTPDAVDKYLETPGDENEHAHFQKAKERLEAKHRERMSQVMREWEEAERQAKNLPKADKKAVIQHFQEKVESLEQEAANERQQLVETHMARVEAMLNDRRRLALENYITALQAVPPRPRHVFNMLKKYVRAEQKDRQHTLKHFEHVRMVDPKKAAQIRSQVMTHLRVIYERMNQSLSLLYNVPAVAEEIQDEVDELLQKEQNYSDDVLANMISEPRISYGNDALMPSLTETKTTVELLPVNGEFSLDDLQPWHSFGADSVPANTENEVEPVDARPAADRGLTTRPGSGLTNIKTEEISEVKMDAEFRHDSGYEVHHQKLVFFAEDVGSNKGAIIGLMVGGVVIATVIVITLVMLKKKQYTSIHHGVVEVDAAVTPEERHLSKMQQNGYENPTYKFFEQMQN

Row | SMILES | Ki [1] [nM] | Ki [2] [nM]
1 | Nc1ccc(/C=C/C=C/C=C/c2ccc(NCCF)cc2)cc1 | 12 | 217
2 | O=[N+]([O-])c1ccc(/C=C/C=C/C=C/c2ccc([N+](=O)[O-])cc2)cc1 | 500 | > 4000
3 | CC(=C(C#N)C#N)c1ccc2cc(N(C)CCF)ccc2c1 | 152 | > 8000
4 | Nc1ccc(/C=C/C=C/C=C/c2ccc(N)cc2)cc1 | 9 | 375
5 | CNc1ccc(/C=C/C=C/C=C/c2ccc(NC)cc2)cc1 | 7.5 | 122
6 | COc1ccc(/C=C/c2ccc(/C=C/c3ccc(OC)c(C(=O)O)c3)c(I)c2)cc1C(=O)O | > 1000 | 5.1
7 | CN(C)c1ccc(/C=C/C=C/C=C/c2ccc(N(C)C)cc2)cc1 | 837 | > 7000
8 | COc1ccc(/C=C/C=C/C=C/c2ccc(OC)cc2)cc1 | > 4000 | > 8000
9 | Oc1ccc(/C=C/C=C/C=C/c2ccc(O)cc2)cc1 | 9 | 150
